In US9556202B2, “Sulfonamide derivatives and methods of use thereof for improving the pharmacokinetics of a drug” (MERCK SHARP & DOHME CORP., priority 2012, dated 2017) one finds IC50 data, which are given here for 38 compounds.

T1 sequence (P08684 2-503): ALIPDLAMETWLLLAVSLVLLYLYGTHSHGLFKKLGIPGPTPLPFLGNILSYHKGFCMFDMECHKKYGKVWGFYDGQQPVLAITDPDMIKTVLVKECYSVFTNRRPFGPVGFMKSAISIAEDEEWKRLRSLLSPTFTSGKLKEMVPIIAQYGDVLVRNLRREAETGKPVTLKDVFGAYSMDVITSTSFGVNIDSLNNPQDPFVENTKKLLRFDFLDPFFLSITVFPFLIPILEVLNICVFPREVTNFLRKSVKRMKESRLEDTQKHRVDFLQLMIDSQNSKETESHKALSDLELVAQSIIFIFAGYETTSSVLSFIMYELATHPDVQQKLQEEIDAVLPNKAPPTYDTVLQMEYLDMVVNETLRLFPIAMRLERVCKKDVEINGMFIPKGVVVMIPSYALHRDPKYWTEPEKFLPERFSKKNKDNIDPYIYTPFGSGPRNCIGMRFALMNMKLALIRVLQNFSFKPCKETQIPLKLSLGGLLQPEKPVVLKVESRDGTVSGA

This experiment addresses T1, CYP3A4 (Homo sapiens, UniProt P08684).
T1 construct: 0.01 mg/mL protein human liver microsomes (BD Gentest); tissue BD Gentest; host or cells: human liver microsomes
Kind of experiment: IC50 vs CYP3A by inhibition of lopinavir metabolism in human liver microsomes. The settings on record: human liver microsomes 0.01 mg/mL, 1.5 μM lopinavir, 8 min 37° C.; test conc. e.g. 0.098-100 nM; unit inferred; read-out: 3A4(LPV). The class given is biochemical. On the procedure:
Determination of IC50 Vs CYP3A by Measurement of Inhibition of Lopinavir Metabolism
This assay was performed in a standard 96-well plate design. IC50 values were calculated from the percent inhibition observed for each test compound at 6 concentrations (for example, 0.098, 0.391, 1.56, 6.25, 25 and 100 nM). The incubation substrate mix contains 1.5 μM lopinavir, 0.01 mg/mL protein human liver microsomes (BD Gentest), 1 mM NAPDH, 3.3 mM MgCl2 and 100 mM potassium phosphate buffer (pH 7.4). The production of the sum of three hydroxylated metabolites (M2: 6-hydroxy lopinavir, M3: 4-hydroxy lopinavir, M4: 4-hydroxy lopinavir (epimer of M3), Kumar et al., 1999) was determined after incubation for 8 min at 37° C. Quantitation of the metabolite peak area ratio against an internal standard (tolbutamide) was determined by LC/MS/MS analysis following acetonitrile treatment of the incubations.
Samples were analyzed in the MRM mode with a SCIEX API-4000 mass spectrometer (Applied Biosystems, Foster City, Calif.), with a Shimadzu LC-20 AD pump (Shimadzu corporation, Kyoto, JP) and a CTC PAL autosampler (Agilent Technologies, Switzerland). A Phenomenex, Luna, 5 μm, 100 A, 2.00×30 mm HPLC column was used for the separation. The mobile phases were: (A) 0.1% formic acid in water and (B) 0.1% formic acid in acetonitrile. The binary gradient was as follows.
The peak area ratio of the analyte to the internal standard was used to quantify the metabolite. The values of peak area ratios in the presence of test compound were compared to those of maximum or minimum controls and were expressed as % inhibition by interpolating between the maximum and minimum peak area ratios. Incubations with no inhibitor were defined as the maxima and with 5 μM ketoconazole were defined as the minima.
The following equation was used to calculate the % inhibition: [1−[(X−Low control)/(High control−Low control)]]*100
For the IC50 calculation, SigmaPlot was used to plot the mean % inhibition versus the test compound concentrations and for non-linear regression analysis of the data. Depending on the range of data points defining the inhibition curve, the data may have been fit to the 4-parameter logistic equation.
(Microsomes from liver hold many membrane-bound enzymes, among them those of drug oxidation.)
Regarding `C[C@H](c1ccc(F)cc1)n1cncc1CN1CCN(S(=O)(=O)c2cncc(N3CCNCC3)c2)CC1` [Compound 29], the IC50 amounted to 2.9 nM. As for `C[C@H](c1ccc(F)cc1)n1cncc1CC1(CO)CCN(S(=O)(=O)c2cnc(N3CCN(C)CC3)s2)CC1` [Compound 47], the IC50 is 13 nM. For `C[C@H](c1ccc(F)cc1)n1cncc1CN1CCN(S(=O)(=O)c2cnc(N3CCN4C[C@H](O)C[C@H]4C3)s2)CC1` [Compound 5], the IC50 turned out to be 3.8 nM. As to `C[C@H](c1ccc(F)cc1)n1cncc1CN1CCN(S(=O)(=O)c2cnc(N3CCN(C)CC3)s2)CC1` [Compound 2], the IC50 was 1 nM. As to `C[C@H](c1ccc(F)cc1)n1cncc1CN1CCN(S(=O)(=O)c2cnc(N3CCC4(CC3)CNC(=O)N4)s2)CC1` [Compound 3], the IC50 is 2.7 nM. Under `C[C@H](c1ccc(F)cc1)n1cncc1CN1CCN(S(=O)(=O)c2cnc(N3CC[C@@H]4OCCN[C@H]4C3)s2)CC1` [Compound 13] stands 1.4 nM; under `C[C@H](c1ccc(F)cc1)n1cnnc1CN1CCN(S(=O)(=O)c2cnc(N3CCN4C[C@H](O)C[C@H]4C3)s2)CC1` [Compound 42], 32 nM. Under `C[C@H](c1ccc(F)cc1)n1cncc1CC1(C#N)CCN(S(=O)(=O)c2cnc(N3CCN(C)CC3)s2)CC1` [Compound 48] stands 9.4 nM; under `C[C@H](c1ccc(F)cc1)n1cncc1CN1CCN(S(=O)(=O)c2cnc(N3CCN4C(=O)OC[C@H]4C3)s2)CC1` [Compound 26], 1.5 nM; under `C[C@H](c1ccc(F)cc1)n1cncc1C1CN(C)CC2CN(S(=O)(=O)c3cnc(Nc4ccccn4)s3)CCN21` (some centres unmarked) [Compound 41], 2.1 nM. Next, `C[C@H](c1ccc(F)cc1)n1cncc1CC1CCN(S(=O)(=O)c2cnc(N3CCN(C)CC3)s2)CC1` [Compound 44]: 1.1 nM; `C[C@H](c1ccc(F)cc1)n1cncc1CN1CCN(S(=O)(=O)c2cnc(N3CCNCC3)s2)CC1` [Compound 1]: 1.4 nM. In the case of `C[C@H](c1ccc(F)cc1)n1cncc1CN1CCN(S(=O)(=O)c2cnc(N3CCN4C[C@H](O)C[C@H]4C3=O)s2)CC1` [Compound 18], the IC50 worked out at 1.1 nM. Next, `C[C@H](c1ccc(F)cc1)n1cncc1C1C(=O)OCC2CN(S(=O)(=O)c3cnc(Nc4ccc(C(F)(F)F)cn4)s3)CCN21` (some centres unmarked) [Compound 39]: 8 nM; `C[C@H](c1ccc(F)cc1)n1cncc1CN1CCN(S(=O)(=O)c2cnc(N3CC[C@@H](N4CCOCC4)[C@H](F)C3)s2)CC1` [Compound 20]: 4.1 nM; `C[C@H](c1ccc(F)cc1)n1cncc1CN1CCN(S(=O)(=O)c2cnc(NCC(F)CN)s2)CC1` (some centres unmarked) [Compound 17]: 1.7 nM. Under `C[C@H](c1ccc(F)cc1)n1cncc1C1CC12CCN(S(=O)(=O)c1cnc(N3CCN(C)CC3)s1)CC2` (single isomer, unassigned) [Compound 43b] stands 2 nM; under `C[C@H](c1ccc(F)cc1)n1cncc1CN1CCN(S(=O)(=O)c2cnc(N3CCN4C[C@H](O)CC4(C)C3)s2)CC1` (some centres unmarked) [Compound 24], 1.9 nM.

Take `Cc1ccc(C2(n3cncc3CN3CCN(S(=O)(=O)c4cnc(N5CCN(C)CC5)s4)CC3)CC2)nc1` [Compound 31]: the IC50 was found to be 4.4 nM.

For the compound `CN1CCN(c2ncc(S(=O)(=O)N3CCN(Cc4cncn4CCOc4ccc(Cl)cc4)CC3)s2)CC1` [Compound 32], the IC50 was determined as 1.2 nM.

On to `C[C@H](c1ccc(F)cc1)n1cncc1CN1CCN(S(=O)(=O)c2cnc(N3CCN(C4CCN(C)CC4)CC3)s2)CC1` [Compound 9], for which the IC50 worked out at 2.8 nM. Turning to `C[C@H](c1ccc(F)cc1)n1cncc1CN1CCN(S(=O)(=O)c2cnc(N3CC(=O)N4C[C@H](O)C[C@H]4C3)s2)CC1` [Compound 16], the IC50 was 5.2 nM.

For the compound `C[C@H](c1ccc(F)cc1)n1cncc1CN1CCN(S(=O)(=O)c2cnc(N3CCNCC3)cn2)CC1` [Compound 30], the IC50 is 3.6 nM. Under `C[C@H](c1ccc(F)cc1)n1cncc1CN1CCN(S(=O)(=O)c2ccc(N3CCNCC3)cn2)CC1` [Compound 28] stands 4.4 nM; under `C[C@H](c1ccc(C#N)cc1)n1cncc1CN1CCN(S(=O)(=O)c2cnc(Nc3ccc(C(F)(F)F)cn3)s2)CC1` [Compound 4], less than 0.1 nM; under `C[C@H](c1ccc(F)cc1)n1cncc1CN1CCN(S(=O)(=O)c2cnc(N3CCC(S(C)(=O)=O)C3)s2)CC1` (some centres unmarked) [Compound 8], 1.8 nM. Next, `CN1CCN(c2ncc(S(=O)(=O)N3CCN(Cc4cncn4CCOc4ccc(F)cn4)CC3)s2)CC1` [Compound 33]: 2.3 nM; `CC1CN(c2ncc(S(=O)(=O)N3CCN(Cc4cncn4[C@H](C)c4ccc(F)cc4)CC3)s2)C[C@@H]2C[C@@H](O)CN12` (some centres unmarked) [Compound 23]: 1.6 nM; `C[C@H](c1ccc(F)cc1)n1cncc1CN1CCN(S(=O)(=O)c2cnc(N3CCC(N)(CO)CC3)s2)CC1` [Compound 25]: 1.9 nM.

As for `C[C@H](c1ccc(F)cc1)n1cncc1CN1CCN(S(=O)(=O)c2cnc(N3C[C@@H]4C[C@@H](O)CN4C[C@@H]3C)s2)CC1` [Compound 21], the IC50 turned out to be 1.9 nM.

Consider `C[C@H](c1ccc(F)cc1)n1cncc1CN1CCN(S(=O)(=O)c2cnc(N3CC[C@@H](N)[C@H](F)C3)s2)CC1` [Compound 12], for which the IC50 amounted to 1 nM.

In the case of `C[C@H](c1ccc(F)cc1)n1cncc1CN1CCN(S(=O)(=O)c2cnc(N3CCN4C[C@H](O)CC[C@H]4C3)s2)CC1` [Compound 19], the IC50 was 1.7 nM. Next, `C[C@H](c1ccc(F)cc1)n1cncc1CN1CCN(S(=O)(=O)c2cnc(N3CC[C@@H]4NCCO[C@H]4C3)s2)CC1` [Compound 15]: 1.2 nM; `CC(c1cncn1[C@H](C)c1ccc(F)cc1)N1CCN(S(=O)(=O)c2cnc(N3CCN4C[C@H](O)C[C@H]4C3)s2)CC1` (some centres unmarked) [Compound 37]: 4.1 nM; `C[C@H](c1ccc(F)cc1)n1cncc1C1COCC2CN(S(=O)(=O)c3cnc(Nc4ccccn4)s3)CCN21` (some centres unmarked) [Compound 40]: 0.8 nM. Take `C[C@H](c1ccc(F)cc1)n1cncc1C1CC12CCN(S(=O)(=O)c1cnc(N3CCN(C)CC3)s1)CC2` (single isomer, unassigned) [Compound 43a]: the IC50 came to 6 nM. `C[C@H](c1ccc(F)cc1)n1cncc1CN1CCN(S(=O)(=O)c2cnc(N3CCN4C[C@H](O)C[C@@H]4C3)s2)CC1` [Compound 6]: the IC50 came out at 1.4 nM. With `C[C@H](c1ccc(F)cc1)n1cncc1CN1CCN(S(=O)(=O)c2cnc(N3CCN4CCC(O)[C@H]4C3)s2)CC1` (some centres unmarked) [Compound 27], the IC50 was 2.6 nM.
